Results on 22 compounds are retold here after patent US10638756B2, “Molecules having pesticidal utility, and intermediates, compositions, and processes, related thereto” (Dow AgroSciences LLC, priority 2017, dated 2020).

The test system of assay [1] is Beet Armyworm (Spodoptera exigua). As to the kind of experiment: Bioassay on Beet Armyworm (BAW), 128-well diet tray assay. The conditions noted are these: for mortality at 50 µg/cm2: Spodoptera exigua, 168 h, 50 μg/cm^2 on artificial diet, second instar larvae, five to seven days, read-out: BAW % Control (or Mortality) rating. The class given is in vivo. On the procedure:
(§1) Certain molecules disclosed in this document were tested against BAW and CL using procedures described in the following examples. In the reporting of the results, the “BAW & CL Rating Table” was used (See Table Section).
Bioassays on BAW were conducted using a 128-well diet tray assay. […] Trays were covered with a clear self-adhesive cover, vented to allow gas exchange, and held at 25° C., 14:10 light-dark for five to seven days. Percent mortality was recorded for the larvae in each well; activity in the eight wells was then averaged. The results are indicated in the table entitled “Table ABC: Biological Results” (See Table Section).

Assay [2] has as its system Cabbage Looper (Trichoplusia ni). As to the kind of experiment: Bioassay on Cabbage Looper (CL), 128-well diet tray assay. It counts as in vivo. Conditions: 168 h, 50 μg/cm^2 on artificial diet, second instar larvae, five to seven days, read-out: CL % Control (or Mortality) rating. On the procedure: as §1
Bioassays on CL were conducted using a 128-well diet tray assay. One to five second instar CL larvae were placed in each well (3 mL) of the diet tray that had been previously filled with 1 mL of artificial diet to which 50 μg/cm^2 of the test molecule (dissolved in 50 μL of 90:10 acetone-water mixture) had been applied (to each of eight wells) and then allowed to dry. Trays were covered with a clear self-adhesive cover, vented to allow gas exchange, and held at 25° C., 14:10 light-dark for five to seven days. Percent mortality was recorded for the larvae in each well; activity in the eight wells was then averaged. The results are indicated in the table entitled “Table ABC: Biological Results” (See Table Section).

As usually defined, the mortality is the percentage killed. Consider `O=C(NNc1ccncn1)c1ccc(/C(F)=C/C(c2cc(Cl)c(Cl)c(Cl)c2)C(F)(F)F)cc1C(F)(F)F` (stereo not drawn) [F19, (Z)—N′-(Pyrimidin-4-yl)-4-(1,4,4,4-tetrafluoro-3-(3,4,5-trichlorophenyl)but-1-en-1-yl)-2-(trifluoromethyl)benzohydrazide], for which the mortality at 50 µg/cm2 in assay [1] and in assay [2] was 50 to 100% throughout.
Regarding `O=C(NNc1c(Cl)c(Cl)nc(Cl)c1Cl)c1ccc(/C(F)=C/C(c2cc(Cl)c(Cl)c(Cl)c2)C(F)(F)F)cc1C(F)(F)F` (stereo not drawn) [F131, (Z)—N′-(Perchloropyridin-4-yl)-4-(1,4,4,4-tetrafluoro-3-(3,4,5-trichlorophenyl)but-1-en-1-yl)-2-(trifluoromethyl)benzohydrazide], the mortality at 50 µg/cm2 in assay [1] and in assay [2] was 0% each time.
Take `COc1cnc(N(C)NC(=O)c2ccc(/C(F)=C/C(c3cc(Cl)c(Cl)c(Cl)c3)C(F)(F)F)cc2C(F)(F)F)nc1` (stereo not drawn) [F12, (Z)—N′-(5-Methoxypyrimidin-2-yl)-N′-methyl-4-(1,4,4,4-tetrafluoro-3-(3,4,5-trichlorophenyl)but-1-en-1-yl)-2-(trifluoromethyl)benzohydrazide]: the mortality at 50 µg/cm2 in assay [1] and in assay [2] was 50 to 100% each time.
With `O=C(NNc1ncccn1)c1ccc(/C(F)=C/C(c2cc(F)c(Cl)c(F)c2)C(F)(F)F)cc1C(F)(F)F` (stereo not drawn) [F188, (Z)-4-(3-(4-Chloro-3,5-difluorophenyl)-1,4,4,4-tetrafluorobut-1-en-1-yl)-N′-(pyrimidin-2-yl)-2-(trifluoromethyl)benzohydrazide], the mortality at 50 µg/cm2 in assay [1] and in assay [2] was 50 to 100% in each case.
`O=C(NNc1ncccn1)c1ccc(/C(F)=C/C(c2ccc(Cl)c(Br)c2)C(F)(F)F)cc1C(F)(F)F` (stereo not drawn) [F178, (Z)-4-(3-(3-Bromo-4-chlorophenyl)-1,4,4,4-tetrafluorobut-1-en-1-yl)-N′-(pyrimidin-2-yl)-2-(trifluoromethyl)benzohydrazide]: the mortality at 50 µg/cm2 in assay [1] and in assay [2] was 50 to 100% throughout.
As to `O=C(NNc1ncccn1)c1ccc(/C(F)=C/C(c2cc(Cl)c(Cl)c(Cl)c2)C(F)(F)F)cc1Cl` (stereo not drawn) [F20, (Z)-2-Chloro-N′-(pyrimidin-2-yl)-4-(1,4,4,4-tetrafluoro-3-(3,4,5-trichlorophenyl)but-1-en-1-yl)benzohydrazide], the mortality at 50 µg/cm2 in assay [1] and in assay [2] was 50 to 100% each time.
On to `O=C(NNc1ncnc(Cl)n1)c1ccc(/C(F)=C/C(c2cc(Cl)c(Cl)c(Cl)c2)C(F)(F)F)cc1C(F)(F)F` (stereo not drawn) [F58, (Z)—N′-(4-Chloro-1,3,5-triazin-2-yl)-4-(1,4,4,4-tetrafluoro-3-(3,4,5-trichlorophenyl)but-1-en-1-yl)-2-(trifluoromethyl)benzohydrazide], for which the mortality at 50 µg/cm2 in assay [1] and in assay [2] was 50 to 100% each time.
For `O=C(NNc1cccc(Cl)n1)c1ccc(/C(F)=C/C(c2cc(Cl)c(Cl)c(Cl)c2)C(F)(F)F)cc1C(F)(F)F` (stereo not drawn) [F18, (Z)—N′-(6-Chloropyridin-2-yl)-4-(1,4,4,4-tetrafluoro-3-(3,4,5-trichlorophenyl)but-1-en-1-yl)-2-(trifluoromethyl)benzohydrazide], the mortality at 50 µg/cm2 in assay [1] and in assay [2] was 50 to 100% throughout.
For `CN(NC(=O)c1ccc(/C(F)=C/C(c2cc(Cl)c(F)c(Cl)c2)C(F)(F)F)cc1C(F)(F)F)c1ncccn1` (stereo not drawn) [F2, (Z)-4-(3-(3,5-Dichloro-4-fluorophenyl)-1,4,4,4-tetrafluorobut-1-en-1-yl)-N′-methyl-N′-(pyrimidin-2-yl)-2-(trifluoromethyl)benzohydrazide], the mortality at 50 µg/cm2 in assay [1] and in assay [2] was 50 to 100% in each case.
Take `Cc1cc(/C(F)=C/C(c2cc(Cl)c(Cl)c(Cl)c2)C(F)(F)F)ccc1C(=O)NN(C)c1ncccn1` (stereo not drawn) [F55, (Z)—N′,2-Dimethyl-N′-(pyrimidin-2-yl)-4-(1,4,4,4-tetrafluoro-3-(3,4,5-trichlorophenyl)but-1-en-1-yl)benzohydrazide]: the mortality at 50 µg/cm2 in assay [1] and in assay [2] was 50 to 100% each time.
For the compound `O=C(NNc1nc(Cl)nc(Cl)n1)c1ccc(/C(F)=C/C(c2cc(Cl)c(Cl)c(Cl)c2)C(F)(F)F)cc1C(F)(F)F` (stereo not drawn) [F13, (Z)—N′-(4,6-Dichloro-1,3,5-triazin-2-yl)-4-(1,4,4,4-tetrafluoro-3-(3,4,5-trichlorophenyl)but-1-en-1-yl)-2-(trifluoromethyl)benzohydrazide], the mortality at 50 µg/cm2 in assay [1] and in assay [2] was 50 to 100% in each case.
For the compound `Cc1nc(Cl)cc(NNC(=O)c2ccc(/C(F)=C/C(c3cc(Cl)c(Cl)c(Cl)c3)C(F)(F)F)cc2C(F)(F)F)n1` (stereo not drawn) [F79, (Z)—N′-(6-Chloro-2-methylpyrimidin-4-yl)-4-(1,4,4,4-tetrafluoro-3-(3,4,5-trichlorophenyl)but-1-en-1-yl)-2-(trifluoromethyl)benzohydrazide], the mortality at 50 µg/cm2 in assay [1] and in assay [2] was 50 to 100% in each case.
For `O=C(NNc1ncccn1)c1ccc(/C(F)=C/[C@H](c2cc(Cl)c(Cl)c(Cl)c2)C(F)(F)F)cc1C(F)(F)F` (single isomer, unassigned) [F120], the “BAW (Table CD-2)” value in assay [1] (0.005 μg/cm^2), in assay [1] (0.05 μg/cm^2), in assay [1] (0.5 μg/cm^2) and in assay [1] (5.0 μg/cm^2) was 100 each time. Also, the mortality at 50 µg/cm2 in assay [1] and in assay [2] was 50 to 100% in each case.
For `CN(NC(=O)c1ccc(/C(F)=C/[C@H](c2cc(Cl)c(Cl)c(Cl)c2)C(F)(F)F)cc1C(F)(F)F)c1ncccn1` (single isomer, unassigned) [F29], the mortality at 50 µg/cm2 in assay [1] and in assay [2] was 50 to 100% each time.
In the case of `O=C(NNCC1CC1)c1ccc(/C(F)=C/C(c2cc(Cl)c(Cl)c(Cl)c2)C(F)(F)F)cc1C(F)(F)F` (stereo not drawn) [F162, (Z)—N′-(Cyclopropylmethyl)-4-(1,4,4,4-tetrafluoro-3-(3,4,5-trichlorophenyl)but-1-en-1-yl)-2-(trifluoromethyl)benzohydrazide], the mortality at 50 µg/cm2 in assay [1] and in assay [2] was 50 to 100% throughout.
Regarding `O=C(NNc1ccc(Cl)nc1)c1ccc(/C(F)=C/C(c2cc(Cl)c(Cl)c(Cl)c2)C(F)(F)F)cc1C(F)(F)F` (stereo not drawn) [F136, (Z)—N′-(6-Chloropyridin-3-yl)-4-(1,4,4,4-tetrafluoro-3-(3,4,5-trichlorophenyl)but-1-en-1-yl)-2-(trifluoromethyl)benzohydrazide], the mortality at 50 µg/cm2 in assay [1] and in assay [2] was 50 to 100% in each case.
As to `O=C(NNc1ncccn1)c1ccc(/C(F)=C/C(c2cc(F)c(F)c(Cl)c2)C(F)(F)F)cc1C(F)(F)F` (stereo not drawn) [F174, (Z)-4-(3-(3-Chloro-4,5-difluorophenyl)-1,4,4,4-tetrafluorobut-1-en-1-yl)-N′-(pyrimidin-2-yl)-2-(trifluoromethyl)benzohydrazide], the mortality at 50 µg/cm2 in assay [1] and in assay [2] was 50 to 100% each time.
For the compound `CN(NC(=O)c1ccc(/C(F)=C/C(c2ccc(F)c(C(F)(F)F)c2)C(F)(F)F)cc1C(F)(F)F)c1ncccn1` (stereo not drawn) [F113, (Z)—N′-Methyl-N′-(pyrimidin-2-yl)-4-(1,4,4,4-tetrafluoro-3-(4-fluoro-3-(trifluoromethyl)phenyl)but-1-en-1-yl)-2-(trifluoromethyl)benzohydrazide], the mortality at 50 µg/cm2 in assay [1] and in assay [2] was 50 to 100% each time.
Turning to `CN(NC(=O)c1ccc(/C(F)=C/C(c2cc(Br)c(F)c(Br)c2)C(F)(F)F)cc1C(F)(F)F)c1ccccc1` (stereo not drawn) [F123, (Z)-4-(3-(3,5-Dibromo-4-fluorophenyl)-1,4,4,4-tetrafluorobut-1-en-1-yl)-N′-methyl-N′-phenyl-2-(trifluoromethyl)benzohydrazide], the mortality at 50 µg/cm2 in assay [1] and in assay [2] was 50 to 100% in each case.
For `O=C(NNc1ncccn1)c1ccc(/C(F)=C/C(c2ccc(OC(F)(F)F)c(Cl)c2)C(F)(F)F)cc1C(F)(F)F` (stereo not drawn) [F50, (Z)-4-(3-(3-Chloro-4-(trifluoromethoxy)phenyl)-1,4,4,4-tetrafluorobut-1-en-1-yl)-N′-(pyrimidin-2-yl)-2-(trifluoromethyl)benzohydrazide], the mortality at 50 µg/cm2 in assay [1] and in assay [2] was 50 to 100% throughout.
Consider `CC(C)CCNNC(=O)c1ccc(/C(F)=C/C(c2cc(Cl)c(Cl)c(Cl)c2)C(F)(F)F)cc1C(F)(F)F` (stereo not drawn) [F145, (Z)—N′-Isopentyl-4-(1,4,4,4-tetrafluoro-3-(3,4,5-trichlorophenyl)but-1-en-1-yl)-2-(trifluoromethyl)benzohydrazide], for which the mortality at 50 µg/cm2 in assay [1] and in assay [2] was 50 to 100% throughout.
Consider `CN(NC(=O)c1ccc(/C(F)=C/C(c2cc(Cl)c(Cl)c(Cl)c2)C(F)(F)F)cc1Cl)c1ncccn1` (stereo not drawn) [F43, (Z)-2-Chloro-N′-methyl-N′-(pyrimidin-2-yl)-4-(1,4,4,4-tetrafluoro-3-(3,4,5-trichlorophenyl)but-1-en-1-yl)benzohydrazide], for which the mortality at 50 µg/cm2 in assay [1] and in assay [2] was 50 to 100% each time.
